Measured values: the supplement of paper PMC10307832

Experiments:
Test in all cases: relative viability (nuclei count vs DMSO), 5 days (fraction); higher = more cells survive
[1] = compound: Cc1cc(Nc2cc(N3CCN(C)CC3)nc(Sc3ccc(NC(=O)C4CC4)cc3)n2)n[nH]1 [Tozasertib]
Outline: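 Hoechst staining, done together with fixation and permeabilisation, marked nuclei for 4× imaging and MetaXpress counting. This followed 5 days without medium change after lung cancer cell lines, kept overnight at 37 °C in 1536-well plates, were pinned with five library-drug doses (not always all listed) spaced by √10 on vehicle-anchored plates. Viability is the ratio of treated-well to vehicle-well nuclei, expressed as a median across plates. Plates passed only at control CV below 25% with at least one doubling.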

[2] = compound: Cc1cc(Nc2cc(N3CCN(C)CC3)nc(Sc3ccc(NC(=O)C4CC4)cc3)n2)n[nH]1 [Tozasertib] + C[C@@H](Oc1cc(-c2cnn(C3CCNCC3)c2)cnc1N)c1c(Cl)ccc(F)c1Cl [Crizotinib] (partner 1 µM)
Outline: (§1)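 Relative viability divides the nuclei count in treated wells by that in vehicle wells. Lung cancer cell lines were seeded in 1536-well plates, dosed by pin tool the next day, and fixed and stained after 5 days in one step with final 0.05% Triton X-100, 1% formaldehyde and 1 ug/ml Hoechst. Dosing was a single drug or a fixed anchor-drug dose plus five library-drug doses (not always all listed) in √10 steps, and values are medians of duplicate plates imaged at 4×.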

[3] = compound: Cc1cc(Nc2cc(N3CCN(C)CC3)nc(Sc3ccc(NC(=O)C4CC4)cc3)n2)n[nH]1 [Tozasertib] + CC1(C)CCC(c2ccc(Cl)cc2)=C(CN2CCN(c3ccc(C(=O)NS(=O)(=O)c4ccc(N[C@H](CCN5CCOCC5)CSc5ccccc5)c(S(=O)(=O)C(F)(F)F)c4)cc3)CC2)C1 [Navitoclax] (partner 0.5 µM)
Outline: as §1

[4] = compound: Cc1cc(Nc2cc(N3CCN(C)CC3)nc(Sc3ccc(NC(=O)C4CC4)cc3)n2)n[nH]1 [Tozasertib] + CS(=O)(=O)CCNCc1ccc(-c2ccc3ncnc(Nc4ccc(OCc5cccc(F)c5)c(Cl)c4)c3c2)o1 [Lapatinib] (partner 2 µM)
Outline: as §1

[5] = compound: Cc1cc(Nc2cc(N3CCN(C)CC3)nc(Sc3ccc(NC(=O)C4CC4)cc3)n2)n[nH]1 [Tozasertib] + Cc1nc(NC(=O)N2CCC[C@H]2C(N)=O)sc1-c1ccnc(C(C)(C)C(F)(F)F)c1 [Alpelisib] (partner 2 µM)
Outline: as §1

[6] = compound: Cc1cc(Nc2cc(N3CCN(C)CC3)nc(Sc3ccc(NC(=O)C4CC4)cc3)n2)n[nH]1 [Tozasertib] + COc1cc2c(Oc3ccc(NC(=O)C4(C(=O)Nc5ccc(F)cc5)CC4)cc3F)ccnc2cc1OCCCN1CCOCC1 [Foretinib] (partner 0.25 µM)
Outline: as §1

[7] = compound: Cc1cc(Nc2cc(N3CCN(C)CC3)nc(Sc3ccc(NC(=O)C4CC4)cc3)n2)n[nH]1 [Tozasertib] + CC(C)C[C@H](NC(=O)[C@H](Cc1ccccc1)NC(=O)c1cnccn1)B(O)O [Bortezomib] (partner 0.002 µM)
Outline: as §1

[8] = compound: Cc1cc(Nc2cc(N3CCN(C)CC3)nc(Sc3ccc(NC(=O)C4CC4)cc3)n2)n[nH]1 [Tozasertib] + C[C@]1(O)C[C@@H](c2nc(-c3ccc4ccc(-c5ccccc5)nc4c3)c3c(N)nccn32)C1 [Linsitinib] (partner 1 µM)
Outline: as §1

[9] = compound: Cc1cc(Nc2cc(N3CCN(C)CC3)nc(Sc3ccc(NC(=O)C4CC4)cc3)n2)n[nH]1 [Tozasertib] + CS(=O)(=O)N1CCN(Cc2cc3nc(-c4cccc5[nH]ncc45)nc(N4CCOCC4)c3s2)CC1 [Pictilisib] (partner 1 µM)
Outline: as §1

[10] = compound: Cc1cc(Nc2cc(N3CCN(C)CC3)nc(Sc3ccc(NC(=O)C4CC4)cc3)n2)n[nH]1 [Tozasertib] + O=C(c1cc(Cc2n[nH]c(=O)c3ccccc23)ccc1F)N1CCN(C(=O)C2CC2)CC1 [Olaparib] (partner 8 µM)
Outline: as §1

[11] = compound: Cc1cc(Nc2cc(N3CCN(C)CC3)nc(Sc3ccc(NC(=O)C4CC4)cc3)n2)n[nH]1 [Tozasertib] + N=C(N)NC(=N)NCCc1ccccc1 [Phenformin] (partner 250 µM)
Outline: as §1

[12] = compound: Cc1cc(Nc2cc(N3CCN(C)CC3)nc(Sc3ccc(NC(=O)C4CC4)cc3)n2)n[nH]1 [Tozasertib] + CCNC(=O)c1noc(-c2cc(C(C)C)c(O)cc2O)c1-c1ccc(CN2CCOCC2)cc1 [Luminespib] (partner 0.01 µM)
Outline: as §1

[13] = compound: Cc1cc(Nc2cc(N3CCN(C)CC3)nc(Sc3ccc(NC(=O)C4CC4)cc3)n2)n[nH]1 [Tozasertib] + Nc1nc2[nH]cc(CCc3ccc(C(=O)N[C@@H](CCC(=O)O)C(=O)O)cc3)c2c(=O)[nH]1 [Pemetrexed] (partner 0.2 µM)
Outline: as §1

[14] = compound: Cc1cc(Nc2cc(N3CCN(C)CC3)nc(Sc3ccc(NC(=O)C4CC4)cc3)n2)n[nH]1 [Tozasertib] + Cc1nc(Nc2ncc(C(=O)Nc3c(C)cccc3Cl)s2)cc(N2CCN(CCO)CC2)n1 [Dasatinib] (partner 0.075 µM)
Outline: as §1

[15] = compound: Cc1cc(Nc2cc(N3CCN(C)CC3)nc(Sc3ccc(NC(=O)C4CC4)cc3)n2)n[nH]1 [Tozasertib] + COc1cccc2cc(-c3nc([C@H]4CC[C@H](C(=O)O)CC4)n4ncnc(N)c34)[nH]c12 [OSI-027] (partner 0.5 µM)
Outline: as §1

With NCI-H1299 the relative viability ([1]; 0.004 µM) was 1.04, the relative viability ([1]; 0.01265 µM) was 1.02 and the relative viability ([1]; 0.04 µM) was 1.01. For the same cell line, the relative viability ([1]; 0.1265 µM) was 1.02, the relative viability ([2]; first compound 0.004 µM) was 0.998 and the relative viability ([2]; first compound 0.01265 µM) was 0.996. The relative viability ([2]; first compound 0.04 µM) was 0.952, the relative viability ([2]; first compound 0.1265 µM) was 0.761 and the relative viability ([3]; first compound 0.004 µM) was 1.1. It also gave a relative viability ([3]; first compound 0.01265 µM) of 1.04, a relative viability ([3]; first compound 0.04 µM) of 1.06 and a relative viability ([3]; first compound 0.1265 µM) of 1.07. The relative viability ([4]; first compound 0.004 µM) was 1.03, the relative viability ([4]; first compound 0.01265 µM) was 0.947 and the relative viability ([4]; first compound 0.1265 µM) was 0.703. The relative viability ([5]; first compound 0.004 µM) was 1.08, the relative viability ([5]; first compound 0.01265 µM) was 1.13 and the relative viability ([5]; first compound 0.04 µM) was 1.04. It also gave a relative viability ([5]; first compound 0.1265 µM) of 1.05, a relative viability ([6]; first compound 0.004 µM) of 1.17 and a relative viability ([6]; first compound 0.01265 µM) of 1.07. It also gave a relative viability ([6]; first compound 0.04 µM) of 1.08, a relative viability ([6]; first compound 0.1265 µM) of 0.499 and a relative viability ([7]; first compound 0.004 µM) of 1.07. It also gave a relative viability ([7]; first compound 0.01265 µM) of 1.01, a relative viability ([7]; first compound 0.04 µM) of 1.02 and a relative viability ([7]; first compound 0.1265 µM) of 1.03. It also gave a relative viability ([8]; first compound 0.004 µM) of 0.952, a relative viability ([8]; first compound 0.01265 µM) of 0.979 and a relative viability ([8]; first compound 0.04 µM) of 0.988. It also gave a relative viability ([8]; first compound 0.1265 µM) of 0.597, a relative viability ([9]; first compound 0.004 µM) of 0.951 and a relative viability ([9]; first compound 0.01265 µM) of 0.808. For the same cell line, the relative viability ([9]; first compound 0.04 µM) was 0.75, the relative viability ([9]; first compound 0.1265 µM) was 0.615 and the relative viability ([10]; first compound 0.004 µM) was 0.982. It also gave a relative viability ([10]; first compound 0.01265 µM) of 0.939, a relative viability ([10]; first compound 0.04 µM) of 0.943 and a relative viability ([10]; first compound 0.1265 µM) of 0.961.
Work on NCI-H1563 yielded a relative viability ([1]; 0.004 µM) of 1.04, a relative viability ([1]; 0.01265 µM) of 1.07 and a relative viability ([1]; 0.04 µM) of 1.02. The relative viability ([1]; 0.1265 µM) was 0.884, the relative viability ([2]; first compound 0.004 µM) was 0.843 and the relative viability ([2]; first compound 0.01265 µM) was 0.843. For the same cell line, the relative viability ([2]; first compound 0.04 µM) was 0.934, the relative viability ([2]; first compound 0.1265 µM) was 0.84 and the relative viability ([11]; first compound 0.004 µM) was 0.704. The relative viability ([11]; first compound 0.01265 µM) was 0.668, the relative viability ([11]; first compound 0.04 µM) was 0.721 and the relative viability ([11]; first compound 0.1265 µM) was 0.573. For the same cell line, the relative viability ([4]; first compound 0.004 µM) was 0.922, the relative viability ([4]; first compound 0.01265 µM) was 0.967 and the relative viability ([4]; first compound 0.04 µM) was 0.875. For the same cell line, the relative viability ([5]; first compound 0.004 µM) was 0.944, the relative viability ([5]; first compound 0.01265 µM) was 0.794 and the relative viability ([5]; first compound 0.04 µM) was 0.94. For the same cell line, the relative viability ([5]; first compound 0.1265 µM) was 0.874, the relative viability ([12]; first compound 0.004 µM) was 0.48 and the relative viability ([12]; first compound 0.01265 µM) was 0.635. It also gave a relative viability ([12]; first compound 0.04 µM) of 0.484, a relative viability ([12]; first compound 0.1265 µM) of 0.48 and a relative viability ([13]; first compound 0.004 µM) of 0.816. The relative viability ([13]; first compound 0.01265 µM) was 0.845, the relative viability ([13]; first compound 0.04 µM) was 0.823 and the relative viability ([13]; first compound 0.1265 µM) was 0.615. It also gave a relative viability ([14]; first compound 0.004 µM) of 0.567, a relative viability ([14]; first compound 0.01265 µM) of 0.481 and a relative viability ([14]; first compound 0.04 µM) of 0.541. The relative viability ([14]; first compound 0.1265 µM) was 0.453, the relative viability ([6]; first compound 0.004 µM) was 0.892 and the relative viability ([6]; first compound 0.01265 µM) was 0.919. The relative viability ([6]; first compound 0.04 µM) was 0.918, the relative viability ([6]; first compound 0.1265 µM) was 0.92 and the relative viability ([7]; first compound 0.004 µM) was 0.873. It also gave a relative viability ([7]; first compound 0.01265 µM) of 0.817, a relative viability ([7]; first compound 0.04 µM) of 0.956 and a relative viability ([7]; first compound 0.1265 µM) of 0.861. For the same cell line, the relative viability ([8]; first compound 0.004 µM) was 1.26, the relative viability ([8]; first compound 0.01265 µM) was 1.2 and the relative viability ([8]; first compound 0.04 µM) was 1.14. The relative viability ([8]; first compound 0.1265 µM) was 1.12, the relative viability ([9]; first compound 0.004 µM) was 0.61 and the relative viability ([9]; first compound 0.01265 µM) was 0.641. It also gave a relative viability ([9]; first compound 0.04 µM) of 0.684, a relative viability ([9]; first compound 0.1265 µM) of 0.53 and a relative viability ([15]; first compound 0.01265 µM) of 0.763. The relative viability ([15]; first compound 0.04 µM) was 0.713 and the relative viability ([15]; first compound 0.1265 µM) was 0.701.
